Results: patent US20230203029A1 (priority 2020, published 2023)

How the values were obtained:
[1] = biological target: T1, human MERTK cytoplasmic domain (Homo sapiens, UniProt Q12866); assay: biochemical; conditions: 30 uM ATP; read-out: Assay 1a Mer IC50 30 uM ATP
T1 construct: human MERTK cytoplasmic domain (Carna Biosciences 08-108); purchased Carna Biosciences 08-108
Method: Assay 1a—MERTK HTRF KinEASE-TK Assay
The enzymatic reaction was carried out for 30 min at room temperature. 10 μL TK Antibody-Cryptate/Streptavidin-XL665 (Cisbio 610SAXLG) was then added for 60 min, including EDTA containing detection buffer (Cisbio 62SDBRDF) to stop the reaction.

[2] = biological target: T2, Ba/F3 Pro B-cell line expressing TEL-human Tyro3 fusion domain (Homo sapiens, UniProt Q06418); assay type: cell-based; conditions: cell survival, 48 h, CellTiter-Glo
T2 sequence (Q06418 518-790 limits assumed): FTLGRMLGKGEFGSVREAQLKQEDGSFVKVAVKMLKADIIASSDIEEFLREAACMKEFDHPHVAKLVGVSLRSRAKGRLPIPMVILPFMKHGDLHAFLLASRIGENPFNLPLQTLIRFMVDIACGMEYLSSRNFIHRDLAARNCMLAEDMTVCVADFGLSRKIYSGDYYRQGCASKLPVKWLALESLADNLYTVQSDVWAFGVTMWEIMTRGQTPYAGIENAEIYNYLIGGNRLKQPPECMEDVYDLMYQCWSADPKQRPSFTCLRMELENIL
Method: (§1) Assay 5—Ba/F3 Cell Survival Assays.
(§2) The inhibitory potencies of compounds were assessed in a Ba/F3 cell survival assay, using the Ba/F3 Pro B-cell line, recombinantly expressing a BCR-human AXL kinase domain fusion protein (pACD320/AXL, Advanced Cellular Dynamics Inc), TEL-human MERTK fusion domain (pACD1000/MERTK, Advanced Cellular Dynamics Inc), TEL-human Tyro3 fusion domain (pACD1000/TYRO3, Advanced Cellular Dynamics Inc), or control TEL-none (ACD320, Advanced Cellular Dynamics Inc) BRC-none constructs (ACD1000, Advanced Cellular Dynamics Inc). 10 ng/mL recombinant murine IL3 (R&D, 403-ML-010) was included in the media when propagating negative control TEL-none or BCR-none lines only. Cells were maintained in RMPI 1640 (Corning 15-040-CV) culture media containing 10% heat inactivated semi-synthetic FBS (RMBIO FGR-BBT), 2 mM L-Glutamine (Sigma, G7513), 100 IU/mL Penicillin-10 mg/mL Streptomycin (Sigma, P4333), and 500 ng/mL Puromycin (Sigma, P8833). Experiments were performed in 50 μl growth media, including the test compounds of interest, and dispensing 5000 cells/well in logarithmic-phase growth into a 384 well white Optiplate (Perkin Elmer 6007299). […] The final assay DMSO concentration was 0.25%. Compound incubations were conducted for 48 h at 37° C./5% CO2, after which cell plate was equilibrated at room temperature for 20 minutes prior to assessing viability. 15 μl of Promega CellTiter-Glo reagent (G7572) was added to each well for 2 min on an orbital shaker to induce cell lysis.
(§3) The plate was then equilibrated for 5 min at room temperature and luminescence read on a BMG Pherastar FSX using the LUM plus optic module. Data were normalised to measurements in the absence of competing compound (0% inhibition). Competition curves were then fit to a 4 parameter logistic equation including a variable slope factor to determine the IC50 (compound concentration causing a half-maximal inhibition of cell survival).

[3] = biological target: T3, Ba/F3 Pro B-cell line expressing TEL-human MERTK fusion domain (Homo sapiens, UniProt Q12866); assay type: cell-based; conditions: cell survival, 48 h, CellTiter-Glo; read-out: TEL-MERTK Ba/F3 IC50
T3 sequence (Q12866 587-858 limits assumed): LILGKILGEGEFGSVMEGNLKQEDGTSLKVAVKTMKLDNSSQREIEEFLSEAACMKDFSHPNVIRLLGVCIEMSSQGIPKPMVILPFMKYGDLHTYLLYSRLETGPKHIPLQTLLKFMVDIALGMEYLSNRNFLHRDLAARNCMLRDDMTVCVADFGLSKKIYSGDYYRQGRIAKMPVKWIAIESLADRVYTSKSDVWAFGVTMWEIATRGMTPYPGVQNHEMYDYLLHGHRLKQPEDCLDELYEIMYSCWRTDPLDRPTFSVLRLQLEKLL
Method: as §1
as §2, with “only.” for “only. Cells were maintained in RMPI 1640 (Corning 15-040-CV) culture media containing 10% heat inactivated semi-synthetic FBS (RMBIO FGR-BBT), 2 mM L-Glutamine (Sigma, G7513), 100 IU/mL Penicillin-10 mg/mL Streptomycin (Sigma, P4333), and 500 ng/mL Puromycin (Sigma, P8833). Experiments were performed in 50 μl growth media, including the test compounds of interest, and dispensing 5000 cells/well in logarithmic-phase growth into a 384 well white Optiplate (Perkin Elmer 6007299).”
as §3, with “Data were normalised to measurements in the absence of competing compound (0% inhibition).” left out

[4] = biological target: T4, human AXL cytoplasmic domain (Homo sapiens, UniProt P30530); assay: Assay 1b AXL HTRF KinEASE-TK assay; assay type: biochemical
T4 construct: human AXL cytoplasmic domain (Thermo Fisher A31515); purchased Thermo Fisher A31515
T4 sequence (P30530 473-894 limits assumed): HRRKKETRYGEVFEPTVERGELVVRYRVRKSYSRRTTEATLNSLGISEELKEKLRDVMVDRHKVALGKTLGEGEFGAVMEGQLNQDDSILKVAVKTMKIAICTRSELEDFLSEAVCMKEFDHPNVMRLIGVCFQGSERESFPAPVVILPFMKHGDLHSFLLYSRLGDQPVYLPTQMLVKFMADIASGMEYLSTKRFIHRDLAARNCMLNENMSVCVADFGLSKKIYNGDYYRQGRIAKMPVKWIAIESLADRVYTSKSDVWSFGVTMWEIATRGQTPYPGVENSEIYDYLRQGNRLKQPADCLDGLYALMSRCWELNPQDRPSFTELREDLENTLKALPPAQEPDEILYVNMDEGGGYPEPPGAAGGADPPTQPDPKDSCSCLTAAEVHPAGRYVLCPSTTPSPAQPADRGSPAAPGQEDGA
Method: Assay 1b—AXL HTRF KinEASE-TK Assay
Compound inhibition of human AXL cytoplasmic domain (Thermo Fisher A31515) enzymatic activity was tested via the HTRF KinEASE-tyrosine kinase (TK) kit (Cisbio 62TK0PEC). Experiments were performed in 20 μl enzymatic buffer (Cisbio 62EZBFDD) supplemented with 5 mM MgCl2, 1 mM MnCl2, 1 mM DTT, 50 nM SEB (Cisbio, 61SEBALB), with 5 nM of AXL and the test compounds of interest. […] The enzymatic reaction was carried out for 30 min at room temperature. 10 μL TK Antibody-Cryptate/Streptavidin-XL665 (Cisbio 610SAXLG) was then added for 60 min, including EDTA containing detection buffer (Cisbio 62SDBRDF) to stop the reaction. The plate was read on a BMG Pherastar FSX using a HTRF 337/620/665 optical module to excite the terbium donor at 337 nm, and record donor emission at 620 nm and acceptor fluorophore emission at 665 nm. From this the FRET ratio (acceptor 665 nm/donor 620 nm) for each data point was calculated. […] Competition curves were then fit to a 4 parameter logistic equation including a variable slope factor to determine the IC50 (compound concentration that inhibits 50% of AXL activity).

T1 sequence (Q12866 527-999): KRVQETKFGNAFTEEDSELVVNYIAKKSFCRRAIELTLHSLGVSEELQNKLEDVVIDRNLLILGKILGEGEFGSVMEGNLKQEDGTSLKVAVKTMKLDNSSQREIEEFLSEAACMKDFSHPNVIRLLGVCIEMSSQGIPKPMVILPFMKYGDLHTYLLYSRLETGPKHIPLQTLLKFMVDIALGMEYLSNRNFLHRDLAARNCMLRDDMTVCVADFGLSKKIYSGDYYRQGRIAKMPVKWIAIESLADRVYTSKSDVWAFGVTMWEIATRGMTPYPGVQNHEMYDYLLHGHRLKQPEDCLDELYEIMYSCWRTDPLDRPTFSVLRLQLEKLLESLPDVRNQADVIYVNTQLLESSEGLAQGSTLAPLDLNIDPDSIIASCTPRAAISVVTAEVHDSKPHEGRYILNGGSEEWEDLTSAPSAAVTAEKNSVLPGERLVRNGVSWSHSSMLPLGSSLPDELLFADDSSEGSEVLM

| IC50 [1] | IC50 [4] | SMILES | IC50 [2] | IC50 [3] |
| --- | --- | --- | --- | --- |
| 535 nM |  | O=C(Nc1ccc(Nc2ccnc3cnc(C(=O)N4CCC4)cc23)cc1)c1cccn(-c2ccccc2)c1=O [Example 5.4, N-[4-[[6-(azetidine-1-carbonyl)-1,7-naphthyridin-4-yl]amino]phenyl]-2-oxo-1-phenyl-pyridine-3-carboxamide] |  |  |
| 392 nM |  | CC(C)n1cc(C(=O)Nc2ccc(Nc3ccnc4cnc(C(=O)NOCCO)cc34)cc2)c(=O)n(-c2ccc(F)cc2)c1=O [Example 7, 4-[4-[[3-(4-fluorophenyl)-1-isopropyl-2,4-dioxo-pyrimidine-5-carbonyl]amino]anilino]-N-(2-hydroxyethoxy)-1,7-naphthyridine-6-carboxamide] |  |  |
| 54 nM |  | CC(C)n1cc(C(=O)Nc2ccc(Nc3ccnc4cnc(C(=O)NCCN(C)C)cc34)cc2)c(=O)n(-c2ccc(F)cc2)c1=O [Example 7.1, N-[2-(dimethylamino)ethyl]-4-[4-[[3-(4-fluorophenyl)-1-isopropyl-2,4-dioxo-pyrimidine-5-carbonyl]amino]anilino]-1,7-naphthyridine-6-carboxamide] |  |  |
| 154 nM |  | CN1CCC(NC(=O)c2cc3c(Oc4ccc(NC(=O)c5cccn(-c6ccccn6)c5=O)cc4)ccnc3cn2)CC1 [Example 8, N-(1-methyl-4-piperidyl)-4-[4-[[2-oxo-1-(2-pyridyl)pyridine-3-carbonyl]amino]phenoxy]-1,7-naphthyridine-6-carboxamide] |  |  |
| 133 nM |  | Cc1c(C(=O)Nc2ccc(Oc3ccnc4cnc(C(=O)NC5CCN(C)CC5)cc34)cc2)c(=O)n(-c2ccccc2)n1C [Example 8.3, 4-[4-[(1,5-Dimethyl-3-oxo-2-phenyl-pyrazole-4-carbonyl)amino]phenoxy]-N-(1-methyl-4-piperidyl)-1,7-naphthyridine-6-carboxamide] |  |  |
| 245 nM |  | Cc1c(C(=O)Nc2ccc(Oc3ccnc4cnc(C(=O)NC5CCN(C)CC5)cc34)cc2)c(=O)n(-c2ccccc2)n1CC(C)(C)O [Example 8.4, 4-[4-[[1-(2-hydroxy-2-methyl-propyl)-5-methyl-3-oxo-2-phenyl-pyrazole-4-carbonyl]amino]phenoxy]-N-(1-methyl-4-piperidyl)-1,7-naphthyridine-6-carboxamide] |  |  |
| 6 nM | 14 nM | CN1CCN(c2cc3c(Oc4ccc(NC(=O)c5cccn(-c6ccc(F)cc6)c5=O)nc4)ccnc3cn2)CC1 [Example 10.1, 1-(4-fluorophenyl)-N-[5-[[6-(4-methylpiperazin-1-yl)-1,7-naphthyridin-4-yl]oxy]-2-pyridyl]-2-oxo-pyridine-3-carboxamide] | 119 nM | 16 nM |
| 722 nM |  | O=C(Nc1ccc(Oc2ccnc3cnc(N4CCNCC4)cc23)cc1)c1cccn(-c2ccccn2)c1=O [Example 12.1, 2-oxo-N-[4-[(6-piperazin-1-yl-1,7-naphthyridin-4-yl)oxy]phenyl]-1-(2-pyridyl)pyridine-3-carboxamide] |  |  |
| 16 nM | 36 nM | O=C(Nc1ccc(Oc2ccnc3cnc(N4CCNCC4)cc23)cc1)c1c[nH]cc(-c2ccc(F)cc2)c1=O [Example 12.7, 5-(4-fluorophenyl)-4-oxo-N-[4-[(6-piperazin-1-yl-1,7-naphthyridin-4-yl)oxy]phenyl]-1H-pyridine-3-carboxamide] |  |  |
| 134 nM |  | Cc1c(C(=O)Nc2ccc(Oc3ccnc4cnc(N5CCNCC5)cc34)cc2)c(=O)n(-c2ccccc2)n1C [Example 12.8, 1,5-dimethyl-3-oxo-2-phenyl-N-[4-[(6-piperazin-1-yl-1,7-naphthyridin-4-yl)oxy]phenyl]pyrazole-4-carboxamide] |  |  |
| 1 nM | 3 nM | O=C(Nc1ccc(Oc2ccnc3cnc(C4CCN(C5COC5)CC4)cc23)cn1)c1cccn(-c2ccc(F)cc2)c1=O [Example 16.3, 1-(4-fluorophenyl)-N-[5-[[6-[1-(oxetan-3-yl)-4-piperidyl]-1,7-naphthyridin-4-yl]oxy]-2-pyridyl]-2-oxo-pyridine-3-carboxamide] | 271 nM | 14 nM |
| 137 nM |  | CN1CCC(NC(=O)c2cc3c(Oc4cnc(NC(=O)c5cccn(-c6ccc(F)cc6)c5=O)nc4)ccnc3cn2)CC1 [Example 19, 4-[2-[[1-(4-Fluorophenyl)-2-oxo-pyridine-3-carbonyl]amino]pyrimidin-5-yl]oxy-N-(1-methyl-4-piperidyl)-1,7-naphthyridine-6-carboxamide] |  |  |
| 13 nM |  | CC(C)n1cc(C(=O)Nc2ccc(Oc3ccnc4cnc(C5CCN(C)CC5)cc34)cn2)c(=O)n(-c2ccc(F)cc2)c1=O [Example 23.1, 3-(4-fluorophenyl)-1-isopropyl-N-[5-[[6-(1-methyl-4-piperidyl)-1,7-naphthyridin-4-yl]oxy]-2-pyridyl]-2,4-dioxo-pyrimidine-5-carboxamide] | 568 nM | 15 nM |
